Laboratory results reported in patent US7294511B2, “Methods for delivering nucleic acid molecules into cells and assessment thereof” (Chromos Molecular Systems, Inc., priority 2001, dated 2007).

Columns and labels:
Hep-G2 cells = experiment: Ultrasound mediated transfection of Hep-G2 cells with GFP chromosomes and Saint-2; assay type: cell-based
Procedure: (§1) Alternatively, the medium was removed from the cells, and the cells were washed twice with HBSS. 500 μl HBSS/lipid solution at 37° C. was added to each well. The HBSS/lipid solution was prepared by adding 1 μl ethanolic lipid solution (prepared as described above) to 500 μl HBSS under vigorous vortexing. The plates were then sealed with parafilm tape and shaken gently at room temperature for 30 min. After incubation, ultrasound was applied at an output energy of 0.5 Watt/cm^2 for 60 sec through the bottom of the plate to the cells. The ultrasound was mediated by an ultrasound gel (Aquasonic 100, Parker, N.J.) between transducer and plate. The ultrasound was applied with an ImaRx Sonoporator 100. Immediately after applying ultrasound one GFP chromosome per seeded cell (2×10^5-5×10^5) (prepared in Example 1) was added. The plate was then sealed again and shaken gently for 1 h at room temperature. After the incubation 1 ml medium (CHO—S-SFM 2 with 10% Fetal Calf Serum, 10000 μg/ml Penicillin and 10000 μg/ml Streptomycin Gibco BRL, Paisley, UK) was added to each well and the cells were incubated for 24 h at 37° C. The cells were then washed with medium, 1 ml medium was added, and the cells were incubated at 37° for another 24 h. Detection of expressed genes was then assayed by microscopy or detection of the transferred chromosome by FISH analysis. […]

A9 cells = experiment: Ultrasound mediated transfection of A9 cells with GFP chromosomes and Saint-2; assay type: cell-based, murine
Procedure: as §1

CHO-KI cells = experiment: Ultrasound mediated transfection of CHO-KI cells with GFP chromosomes and Saint-2; assay type: cell-based
Procedure: Vesicles were prepared at a lipid concentration of 700 nmol/ml lipid (cationic lipid/DOPE 1:1) as follows. In a glass tube (10 ml) 350 nmol cationic lipid (SAINT-2) was mixed with 350 nmol dioleoylphosphatidylethanolamine (DOPE), both solubilized in an organic solvent (Chloroform, Methanol or Chloroform/Methanol 1:1, v/v). dioleoylphosphatidylethanolamine (DOPE; Avanti Polar Lipids, Alabaster, Ala.) forms inverse hexagonal phases in a membrane and weakens the membrane. Other effectors that may be used are cis-unsaturated phosphatidylethanolamines, cis-unsaturated fatty acids, and cholesterol.
The solvent was evaporated under a stream of nitrogen (15 min/250 μl solvent at room temperature). The remaining solvent was removed totally by drying the lipid for 15 min in an desiccator under high vacuum from a vacuum pump. To the dried mixture was added 1 ml ultrapure water. This was vortexed vigorously for about 5 min. The resulting solution was sonicated in an ultrasonication bath (Laboratory Supplies Inc. N.Y.) until a clear solution was obtained. The resulting suspension contained a population of unilamellar vesicles with a size distribution between 50 to 100 nm.
CHO-KI cells were grown at 37° C., 5% CO2, in CHO—S-SFM 2 Medium, (Gibco BRL, Paisley, UK). Between 2×10^5 and 5×10^5 cells were plated onto sterile glass slides in a 12 well plate 24 h before usage.
Transfection of the cells was performed as follows. The medium was removed from the cells, and the cells were washed twice with HBSS (Hanks balanced salt solution without Phenol Red (Gibco BRL, UK)) at 37° C. Then 500 μl HBSS at 37° C. was added per well, followed by 10 μl of the freshly prepared vesicle solution (prepared in Example 2) to yield a final concentration of 23.3 nmol/ml.
as §1, with “temperature.” for “temperature. After the incubation 1 ml medium (CHO—S-SFM 2 with 10% Fetal Calf Serum, 10000 μg/ml Penicillin and 10000 μg/ml Streptomycin Gibco BRL, Paisley, UK) was added to each well and the cells were incubated for 24 h at 37° C. The cells were then washed with medium, 1 ml medium was added, and the cells were incubated at 37° for another 24 h. Detection of expressed genes was then assayed by microscopy or detection of the transferred chromosome by FISH analysis.”

cells remained on the glass slide after transfection (Hep-G2 cells; Hep-G2, Saint-2/DOPE, ultrasound 0.5 Watt/cm^2 60 sec): 30%
cells remained on the glass after transfection (A9 cells; A9, Saint-2/DOPE, ultrasound 0.5 Watt/cm^2 60 sec): 30%
cells remained on the glass slide after transfection (CHO-KI cells; Saint-2/DOPE, ultrasound 0.5 Watt/cm^2 60 sec, visual inspection): 30%
Structure (SMILES): CCCCCCCCC=CCCCCCCCCC(CCCCCCCCC=CCCCCCCCC)c1cc[n+](C)cc1.[Cl-] (centres unmarked) [Saint-2, 1-methyl-4-(1-octadec-9-enyl-nonadec-10-enylenyl)pyridinium chloride]
remaining cells positive for green fluorescent protein expression (Hep-G2 cells; Hep-G2, of the cells remaining on the slide): 80%
remaining cells positive for green fluorescent protein expression (A9 cells; A9, of the cells remaining on the glass): 50%
GFP positive cells as % of original population (CHO-KI cells; after 48 hours): 3%
remaining cells positive for green fluorescent protein expression (CHO-KI cells; after 48 hours, of the cells remaining on the slide): 10%
cells containing an intact artificial chromosome (FISH) (CHO-KI cells; after culturing for two weeks): 1.4%
